Laboratory results as given in patent publication US20130183239A1, “ISOTOPIC CARBON CHOLINE ANALOGS” (IMPERIAL COLLEGE, priority 2010, published 2013).

Tests used:
[1] = Potassium permanganate oxidation study; format: physicochemical; conditions: 1 hour post-treatment with potassium permanganate, room temperature, radio-HPLC
Source text: Reagents and Conditions: i) KMnO4, Na2CO3, H2O, rt.

[2] = mouse, in vivo
Procedure: ^11C-choline, ^11C-D4-choline (˜18.5 MBq) and ^18F-D4-choline (˜3.7 MBq) were each injected via the tail vein of anaesthetized BALB/c nude mice. The mice were maintained under anesthesia and sacrificed by exsanguination via cardiac puncture at 2, 15, 30 or 60 min post radiotracer injection to obtain blood, plasma, heart, lung, liver, kidney and muscle. Tissue radioactivity was determined on a gamma counter (Cobra II Auto-Gamma counter, Packard Biosciences Co, Pangbourne, UK) and decay corrected. Data were expressed as percent injected dose per gram of tissue.
Time course biodistribution was performed in non-tumor-bearing male nude mice with ^11C-choline, ^11C-D4-choline and ^18F-D4-choline tracers.

[3] = mouse, in vivo; remark: listed apart in the source
Procedure: (§1) Radiolabeled metabolites from plasma and tissues were quantified using a method adapted from Smith G, Zhao Y, Leyton J, et al. Radiosynthesis and pre-clinical evaluation of [(18)F]fluoro-[1,2-(2)H(4)]choline. Nucl Med Biol. 2011; 38:39-51. Briefly, tumor-bearing mice under terminal anaesthesia were administered a bolus i.v. injection of one of the following radiotracers: ^11C-choline, ^11C-D4-choline (˜18.5 MBq) or ^18F-D4-choline (˜3.7 MBq), and sacrificed by exsanguination via cardiac puncture at 2, 15, 30 or 60 min post radiotracer injection. For automated radiosynthesis methodology, see Example 22. Tumor, kidney and liver samples were immediately snap-frozen in liquid nitrogen. Aliquots of heparinized blood were rapidly centrifuged (14000 g, 5 min, 4° C.) to obtain plasma. Plasma samples were subsequently snap-frozen in liquid nitrogen and kept on dry ice prior to analysis.
(§2) For analysis, samples were thawed and kept at 4° C. immediately before use. To ice cold plasma (200 μl) was added ice cold methanol (1.5 mL) and the resulting suspension centrifuged (14000 g; 4° C.; 3 min). The supernatant was then decanted and evaporated to dryness on a rotary evaporator (bath temperature, 40° C.), then resuspended in HPLC mobile phase (Solvent A: acetonitrile/water/ethanol/acetic acid/1.0 M ammonium acetate/0.1 M sodium phosphate [800/127/68/2/3/10]; 1.1 mL). Samples were filtered through a hydrophilic syringe filter (0.2 μm filter; Millex PTFE filter, Millipore, Mass., USA) and the sample (˜1 mL) then injected via a 1 mL sample loop onto the HPLC for analysis. Tissues were homogenized in ice-cold methanol (1.5 mL) using an Ultra-Turrax T-25 homogenizer (IKA Werke GmbH and Co. KG, Staufen, Germany) and subsequently treated as per plasma samples.
(§3) Samples were analyzed on an Agilent 1100 series HPLC system (Agilent Technologies, Santa Clara, Calif., USA), configured as described above, using the method of Leyton J, Smith G, Zhao Y, et al. [18F]fluoromethyl-[1, 2-2H4]-choline: a novel radiotracer for imaging choline metabolism in tumors by positron emission tomography. Cancer Res. 2009; 69:7721-7728. A μBondapak C18 HPLC column (Waters, Milford, Mass., USA; […]), stationary phase and a mobile phase comprising of Solvent A (vide supra) and Solvent B (acetonitrile/water/ethanol/acetic acid/1.0 M ammonium acetate/0.1 M sodium phosphate (400/400/68/44/88/10)), delivered at a flow rate of 3 mL/min were used for analyte separation. The gradient was set as follows: 0% B for 5 min; 0% to 100% B in 10 min; 100% B for 0.5 min; 100% to 0% B in 2 min; 0% B for 2.5 min.
A 2-tissue irreversible compartmental model was employed to fit the TACs, as has been previously established for ^11C-choline (Kenny L M, Contractor K B, Hinz R, et al. Reproducibility of [11C]choline-positron emission tomography and effect of trastuzumab. Clin Cancer Res. Aug. 15 2010; 16(16):4236-4245; and Sutinen E, Nurmi M, Roivainen A, et al. Kinetics of [(11)C]choline uptake in prostate cancer: a PET study. Eur J Nucl Med Mol. Imaging. March 2004; 31(3):317-324). An estimate of the whole blood TAC (wbTAC(t)) was derived from the PET image itself, as described above. […] Therefore it was fitted with a sum of 3 exponentials from the peak on and the fitted function was used as input function in the kinetic modeling (after metabolite correction, see below). […] The pf values were fitted to a sum of two exponentials with the constraint pf(t=0)=1 to obtain the function pf(t).

[4] = test system: HCT116 tumors; conditions: mouse, in vivo
Procedure: as §1, §2, §3
^11C-choline, ^11C-D4-choline and ^18F-D4-choline metabolism were measured in HCT116 tumors (FIG. 22).

[2H]C([2H])(O)C([2H])([2H])[N+](C)(C)C[18F] [[^18F]D4-FCH, [^18F]fluoromethyl-[1,2-^2H4]-choline]
parent compound still present [1]: ~80% | increase in kidney retention compared to 11C-choline [2]: 3.3 fold | urinary excretion [2]: trend towards increased urinary excretion | liver radioactivity as betaine [3]: 15.0±3.6% | liver radioactivity present as phosphocholine [3]: ~80% | plasma radioactivity in the form of betaine [3]: 43.7±12.4% | resistance to oxidation in the kidney [3]: more resistant to oxidation | tumor betaine radioactivity [4]: 14.0±3.0% | tumor radioactivity corresponding to phosphocholine [4]: 45.1±3.2% | higher un-metabolized parent tracer in tumor compared to 11C-D4-choline ([4]; 1 h): 4.0 fold | higher un-metabolized parent tracer in tumor compared to 11C-choline ([4]; 1 h): 2.7 fold
